# Key:
# [1] = tested on: DU-145; experiment: Anticancer activity against human DU145 cells after 96 hrs by SRB assay; assay type: functional, cell-based; conditions: DU-145, 96 h
# [2] = tested on: PPC-1; experiment: Anticancer activity against human PPC1 cells after 96 hrs by SRB assay; assay type: functional, cell-based; conditions: PPC-1, 96 h
# [3] = tested on: LNCaP; experiment: Anticancer activity against human LNCAP cells after 96 hrs by SRB assay; assay type: functional, cell-based
# [4] = tested on: A-375; experiment: Anticancer activity against human A375 cells after 96 hrs by SRB assay; assay type: functional, cell-based; conditions: A-375, 96 h
# [5] = tested on: PC-3; experiment: Anticancer activity against human PC3 cells after 96 hrs by SRB assay; assay type: functional, cell-based; conditions: PC-3, 96 h
# [6] = Anticancer activity against mouse B16-F1 cells after 96 hrs by SRB assay; assay type: functional, cell-based; conditions: B16-F1, 96 h
# [7] = tested on: NCI/ADR-RES; experiment: Anticancer activity against P-gp overexpressing human NCI/ADR-RES cells after 96 hrs by SRB assay; assay type: functional, cell-based
# [8] = tested on: OVCAR-8; experiment: Anticancer activity against human OVCAR8 cells after 96 hrs by SRB assay; assay type: functional, cell-based; conditions: OVCAR-8, 96 h
# [9] = tested on: OVCAR-8; experiment: Resistance factor, ratio of IC50 for human NCI-ADR-RES cells to IC50 for drug-sensitive human OVCAR8 cells; assay type: functional
# [10] = Anticancer activity against human WM164 cells after 96 hrs by SRB assay; assay type: functional, cell-based; conditions: WM164, 96 h
# [11] = tested on: Liver microsomes; experiment: Half life in human liver microsomes; assay type: ADME, Microsome
# [12] = AUC in Sprague-Dawley rat at 4 mg/kg, po by LC-MS/MS analysis; assay type: ADME, organism-based; set-up: dose 4 mg/kg, route oral; conditions: plasma
# [13] = Aqueous solubility of the compound in PBS at 35 ug/ml and pH 7.4 by LC/MS/MS analysis; assay type: physicochemical; conditions: buffer
# [14] = Cmax in Sprague-Dawley rat at 4 mg/kg, po by LC-MS/MS analysis; assay type: ADME, organism-based; set-up: dose 4 mg/kg, route oral; conditions: in vivo
# [15] = AUC in Sprague-Dawley rat at […], iv by LC-MS/MS analysis; assay type: ADME, organism-based; set-up: dose 2.5 mg/kg, route intravenous; conditions: plasma
# [16] = tested on: Rattus norvegicus; experiment: Oral bioavailability in Sprague-Dawley rat at 4 mg/kg by LC-MS/MS analysis; assay type: ADME, organism-based; conditions: in vivo
# [17] = Cmax in Sprague-Dawley rat at […], iv by LC-MS/MS analysis; assay type: ADME, organism-based; set-up: dose 2.5 mg/kg, route intravenous; conditions: in vivo
# [18] = AUC in Sprague-Dawley rat at 5 mg/kg, iv by LC-MS/MS analysis; assay type: ADME, organism-based; set-up: dose 5 mg/kg, route intravenous; conditions: plasma
# [19] = AUC in Sprague-Dawley rat at 10 mg/kg, po by LC-MS/MS analysis; assay type: ADME, organism-based; set-up: dose 10 mg/kg, route oral; conditions: plasma
SMILES,IC50 [1] [nM],IC50 [3] [nM],IC50 [4] [nM],IC50 [5] [nM],IC50 [2] [nM],IC50 [6] [nM],IC50 [8] [nM],IC50 [10] [nM],other results
COc1cc(C(=O)c2csc(-c3ccc(O)cc3)n2)cc(OC)c1OC,116,103,100,87,76,110,–,–,–
COc1cc(C(=O)c2csc(Nc3ccccc3)n2)cc(OC)c1OC,70,51,–,57,54,65,46,–,IC50 [7]: 27 nM; Ratio IC50 [9]: 0.6
COc1cc(C(=O)c2cccc(-c3ccccc3)n2)cc(OC)c1OC,–,27,30,–,25,39,33,–,IC50 [7]: 13 nM; Ratio IC50 [9]: 0.4
COc1cc(/C(=C/C#N)c2csc(-c3ccccc3)n2)cc(OC)c1OC,2280,580,4600,890,900,5400,–,4900,–
COc1cc(/C(=C\C#N)c2csc(-c3ccccc3)n2)cc(OC)c1OC,10000,1990,1200,10000,10000,1200,–,1000,–
COc1cc(/C(=N\C#N)c2csc(-c3ccccc3)n2)cc(OC)c1OC,42,23,28,27,20,60,34,27,IC50 [7]: 14 nM; t1/2 [11]: < 5 min; Ratio IC50 [9]: 0.4
COc1cc(C(=O)c2csc(-c3cc4ccccc4[nH]3)n2)cc(OC)c1OC,32,28,19,24,28,43,–,–,–
COc1cc(C(=O)c2csc(-c3ccc4[nH]ccc4c3)n2)cc(OC)c1OC,13,–,8,7,8,25,10,–,IC50 [7]: 4 nM; Ratio IC50 [9]: 0.4
COc1cc(C(=O)c2csc(-c3ccc(CN)cc3)n2)cc(OC)c1OC.Cl,–,13,41,80,34,38,26,–,AUC [12]: 6.67 ng·h/mL; IC50 [7]: 11 nM; solubility [13]: soluble; Cmax [14]: 3.2 ng/mL; AUC [15]: 2320 ng·h/mL; F [16]: 0.2%; Cmax [17]: 3790 ng/mL
COc1cc(C(=O)c2csc(Nc3ccc(F)cc3)n2)cc(OC)c1OC,63,41,–,–,–,–,44,–,IC50 [7]: 25 nM
COc1cc(C(=O)c2csc(Nc3ccccc3)n2)cc(OC)c1OC.Cl,–,–,–,–,–,–,–,–,AUC [18]: 4930 ng·h/mL; AUC [19]: 1080 ng·h/mL
COc1cc(C(=O)c2csc(Nc3ccc(F)cc3)n2)cc(OC)c1OC.Cl,–,–,–,–,–,–,–,–,AUC [18]: 6350 ng·h/mL; AUC [19]: 2670 ng·h/mL
COc1cc(C(=O)c2csc(Nc3ccc(C)cc3)n2)cc(OC)c1OC,–,–,–,–,–,–,28,–,IC50 [7]: 21 nM; Ratio IC50 [9]: 0.8
COc1cc(C(=O)c2csc(-c3ccccc3)n2)cc(OC)c1OC,–,–,–,–,–,55,35,64,AUC [19]: 617 ng·h/mL; AUC [15]: 4650 ng·h/mL
CC(=O)O[C@H]1C(=O)[C@@]2(C)[C@H]([C@H](OC(=O)c3ccccc3)[C@]3(O)C[C@H](OC(=O)[C@H](O)[C@@H](NC(=O)c4ccccc4)c4ccccc4)C(C)=C1C3(C)C)[C@]1(OC(C)=O)CO[C@@H]1C[C@@H]2O [PACLITAXEL],–,–,–,–,–,–,4.7,–,–

# More lines, main results first:
IC50 [1] [nM],IC50 [3] [nM],IC50 [4] [nM],IC50 [5] [nM],SMILES,IC50 [2] [nM],IC50 [6] [nM],IC50 [8] [nM],IC50 [10] [nM],other results
35,23,27,21,COc1cc(C(=O)c2ccc(-c3ccccc3)o2)cc(OC)c1OC,20,151,–,–,–
145,101,100,101,COc1cc(C(=O)c2cc(-c3ccccc3)n[nH]2)cc(OC)c1OC,84,245,–,–,–
103,169,200,120,COc1cc(/C(=N/O)c2csc(-c3ccccc3)n2)cc(OC)c1OC,144,300,–,–,–
> 10000,> 10000,2900,> 10000,CO/N=C(/c1cc(OC)c(OC)c(OC)c1)c1csc(-c2ccccc2)n1,–,3800,–,3400,–
> 10000,–,> 10000,–,CO/N=C(\c1cc(OC)c(OC)c(OC)c1)c1csc(-c2ccccc2)n1,> 10000,> 10000,–,> 10000,–
2650,1390,1900,2470,COc1cc(C(=C(C)C)c2csc(-c3ccccc3)n2)cc(OC)c1OC,2040,3800,–,3700,–
> 10000,> 10000,> 10000,> 10000,COc1cc(-c2csc(-c3ccccc3)n2)cc(OC)c1OC,> 10000,> 10000,–,> 10000,–
> 10000,2300,1600,> 10000,COc1cc(Sc2cccc(-c3ccccc3)c2)cc(OC)c1OC,2300,2400,–,2000,–
> 10000,> 10000,> 10000,> 10000,COc1cc(S(=O)(=O)c2cccc(-c3ccccc3)c2)cc(OC)c1OC,> 10000,> 10000,–,> 10000,–
> 10000,> 10000,> 10000,> 10000,COc1cc([S+]([O-])c2cccc(-c3ccccc3)c2)cc(OC)c1OC (stereo unspecified),> 10000,> 10000,–,> 10000,–
> 10000,> 10000,> 10000,> 10000,COc1cc(NS(=O)(=O)c2cccc(-c3ccccc3)c2)cc(OC)c1OC,> 10000,> 10000,–,> 10000,–

# From ChEMBL document CHEMBL1828586 (J Med Chem, 2011)
